Data from patent US11578055B2, “Triazacyclododecansulfonamide (“TCD”)-based protein secretion inhibitors” (KEZAR LIFE SCIENCES, priority 2018, dated 2023).
pEC50, pIC50: −log10 of the molar value.

How the values were obtained:
[1] = In Vitro Microsome Stability Assay (human); assay type: in vitro ADME; conditions: human liver microsomes, 30 min w/ NADPH
Method in brief: (§1)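 Species liver microsomes in potassium phosphate buffer were preincubated at 37 °C for 3–5 min with test compound (added from 0.25 mM DMSO stock), then started with NADPH. Samples at 0 and 30 min were quenched with acetonitrile containing internal standard and analysed by LC-MS/MS; % remaining at 30 min used analyte/IS AUC ratios relative to t=0.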

[2] = tested on: full length IL-2 (amino acids 1-153) fused to Gaussia Luciferase; test: Dox Induced IL2-FL-Gluc Assay; assay type: cell-based; conditions: 24 hr, Dox inducible, 293FRT/TO cells; read-out: 24 hr Dox Inducible IL2FLGluc 293FRT/TO: Mean IC50
Method in brief: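 Flp-In 293 T-REx stable line expressing full-length IL-2 (aa 1-153) with C-terminal Gaussia luciferase fusion under doxycycline-inducible control. Cells plated the day before; compound dilutions added in DMSO/media containing doxycycline, incubated at 37° C, 5% CO2.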

[3] = tested on: multiple myeloma cell line U266B1; test: U266 Cell Viability Assay; assay type: cell-based, human; conditions: Homo sapiens, U-266; 48 hr, U266, Celltiter-Glo
Method in brief: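 U266B1 myeloma cells in RPMI 1640 with 10% FBS were treated with compound dilutions for 48 h at 37° C, 5% CO2. Viability was read as CellTiter-Glo luminescence. Data for structures drawn without stereochemistry refer to stereoisomer mixtures.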

[4] = In Vitro Microsome Stability Assay (rat); assay type: in vitro ADME; conditions: rat liver microsomes, 30 min w/ NADPH
Method in brief: as §1

[5] = tested on: full length TNFα (amino acids 1-233) fused to Gaussia Luciferase; test: Dox Induced TNFα-FL-Gluc Assay; assay type: cell-based; conditions: 24 hr, Dox inducible, 293FRT/TO cells; read-out: 24 hr Dox Inducible TNFaFLGluc 293FRT/TO: Mean IC50
Method in brief: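 Stable Flp-In 293 T-REx line expressing doxycycline-inducible full-length TNFα fused to Gaussia luciferase; cells plated the day before, then treated with compound dilutions in doxycycline-containing medium at 37° C, 5% CO2. Unspecified stereocentres mean stereoisomer mixtures were tested.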

[6] = In Vitro Microsome Stability Assay (mouse); assay type: in vitro ADME; conditions: mouse liver microsomes, 30 min w/ NADPH
Method in brief: as §1

[7] = In Vitro Microsome Stability Assay (monkey); assay type: in vitro ADME; conditions: monkey liver microsomes, 30 min w/ NADPH
Method in brief: as §1

[8] = tested on: PD1 signal sequence plus 10 amino acids fused to Gaussia Luciferase (PD1-ss+10aa/Gaussia Luciferase); test: Dox Induced PD1-ss-Gluc Assay; assay type: cell-based; conditions: 24 hr, Dox inducible, 293FRT/TO cells; read-out: 24 hr Dox Inducible PD1ssGluc 293FRT/TO: Mean IC50
Method in brief: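 Stable Flp-In 293 T-REx line expressing the fusion under tetracycline-inducible control, plated the day before assay. Compound dilutions added with doxycycline and incubated at 37 °C, 5% CO2; unspecified stereocentres mean data refer to stereoisomer mixtures.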

[9] = tested on: multiple myeloma cell line NCl-H929; test: H929 Cell Viability Assay; assay type: cell-based, human; conditions: Homo sapiens, NCI-H929, 48 h, H929, Celltiter-Glo
Method in brief: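 NCI-H929 myeloma cells in RPMI 1640 with 10% FBS were treated with compound dilutions for 48 h at 37 °C, and viability was then read by CellTiter-Glo luminescence. Compounds drawn without stereochemistry were tested as stereoisomer mixtures.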

Structure (SMILES) | Liver Microsome Stability-% Left after 30 min w/ NADPH (%) Human [1] | pIC50 [2] | pEC50 [3] | Liver Microsome Stability-% Left after 30 min w/ NADPH (%) Rat [4] | pIC50 [5] | Liver Microsome Stability-% Left after 30 min w/ NADPH (%) Mouse [6] | Liver Microsome Stability-% Left after 30 min w/ NADPH (%) Monkey [7] | pIC50 [8] | pEC50 [9]
C[C@H]1CN(S(=O)(=O)c2ccc(N(C)C)cc2)CCCN(CCC(F)(F)F)CCCN(S(=O)(=O)N2CCc3cc(Cl)ccc3C2)C1 [A165, 4-{[(3S)-5-[(6-chloro-1,2,3,4-tetrahydroisoquinolin-2-yl)sulfonyl]-3-methyl-9-(3,3,3-trifluoropropyl)-1,5,9-triazacyclododecan-1-yl]sulfonyl}-N,N-dimethylaniline] | 2.23% | 6.53 | < 4.60 | 11.9% | 5.73 | 14.9% | 12.8% | 6.88 | 5.39
Cc1cccc2c1CCN(S(=O)(=O)N1CCCN(CC3CCCCC3)CCCN(S(=O)(=O)c3ccc(N(C)C)cc3)C[C@H](C)C1)C2 [A166, 4-{[(3S)-9-(cyclohexylmethyl)-3-methyl-5-[(5-methyl-1,2,3,4-tetrahydroisoquinolin-2-yl)sulfonyl]-1,5,9-triazacyclododecan-1-yl]sulfonyl}-N,N-dimethylaniline] | 14.0% | 7.52 | < 4.60 | 31.3% | 6.56 | 26.4% | 18.7% | 7.78 | 6.26
C[C@H]1CN(S(=O)(=O)c2ccc(N(C)C)cc2)CCCN(CC(F)(F)F)CCCN(S(=O)(=O)N2CCc3cc(Cl)ccc3C2)C1 [A167, 4-{[(3S)-5-[(6-chloro-1,2,3,4-tetrahydroisoquinolin-2-yl)sulfonyl]-3-methyl-9-(2,2,2-trifluoroethyl)-1,5,9-triazacyclododecan-1-yl]sulfonyl}-N,N-dimethylaniline] | 5.68% | 6.38 | < 4.60 | 9.19% | 5.58 | 18.3% | 73% | 6.70 | 5.19
C[C@H]1CN(S(=O)(=O)c2cccc(N(C)C)c2)CCCN(CC2CCCCC2)CCCN(S(=O)(=O)N2CCc3cc(Cl)ccc3C2)C1 [A168, 3-{[(3S)-5-[(6-chloro-1,2,3,4-tetrahydroisoquinolin-2-yl)sulfonyl]-9-(cyclohexylmethyl)-3-methyl-1,5,9-triazacyclododecan-1-yl]sulfonyl}-N,N-dimethylaniline] | 25.7% | 5.94 | < 4.60 | 42.1% | < 4.60 | 42% | 73% | 5.83 | < 4.60
C[C@H]1CN(S(=O)(=O)c2ccc(N(C)C)cc2)CCCN(CC2CC(F)(F)C2)CCCN(S(=O)(=O)N2CCc3cc(Cl)ccc3C2)C1 [A169, 4-{[(3S)-5-[(6-chloro-1,2,3,4-tetrahydroisoquinolin-2-yl)sulfonyl]-9-[(3,3-difluorocyclobutyl)methyl]-3-methyl-1,5,9-triazacyclododecan-1-yl]sulfonyl}-N,N-dimethylaniline] | 34.7% | 6.72 | < 4.60 | 13.1% | 5.98 | 22.5% | 4.23% | 7.09 | 5.49
C[C@H]1CN(S(=O)(=O)Cc2ccccc2)CCCN(CC2CCCCC2)CCCN(S(=O)(=O)N2CCc3cc(Cl)ccc3C2)C1 [A171, 6-chloro-2-{[(3S)-9-(cyclohexylmethyl)-3-methyl-5-phenylmethanesulfonyl-1,5,9-triazacyclododecan-1-yl]sulfonyl}-1,2,3,4-tetrahydroisoquinoline] | 0.60% | < 4.60 | < 4.60 | 0.90% | < 4.60 | 0.91% | 0.26% | < 4.60 | < 4.60

Second part, the compound after the results:

Liver Microsome Stability-% Left after 30 min w/ NADPH (%) Human [1] | pIC50 [2] | pEC50 [3] | Liver Microsome Stability-% Left after 30 min w/ NADPH (%) Rat [4] | pIC50 [5] | Liver Microsome Stability-% Left after 30 min w/ NADPH (%) Mouse [6] | Liver Microsome Stability-% Left after 30 min w/ NADPH (%) Monkey [7] | pIC50 [8] | pEC50 [9] | Structure (SMILES)
7.2% | 6.87 | < 4.60 | 10.8% | 6.10 | 3.65% | 1.37% | 7.25 | 5.75 | CC1c2ccccc2CCN1S(=O)(=O)N1CCCN(CC2CCCCC2)CCCN(S(=O)(=O)c2ccc(N(C)C)cc2)C[C@H](C)C1 (stereo partly drawn) [A170, 4-{[(3S)-9-(cyclohexylmethyl)-3-methyl-5-[(1-methyl-1,2,3,4-tetrahydroisoquinolin-2-yl]sulfonyl]-1,5,9-triazacyclododecan-1-yl]sulfonyl}-N,N-dimethylaniline]
3.46% | 7.18 | < 4.60 | 2.23% | 6.36 | 3.65% | 2.63% | 7.53 | 5.76 | CC1Cc2ccccc2CN1S(=O)(=O)N1CCCN(CC2CCCCC2)CCCN(S(=O)(=O)c2ccc(N(C)C)cc2)C[C@H](C)C1 (stereo partly drawn) [A172, 4-{[(3S)-9-(cyclohexylmethyl)-3-methyl-5-[(3-methyl-1,2,3,4-tetrahydroisoquinolin-2-yl]sulfonyl]-1,5,9-triazacyclododecan-1-yl]sulfonyl}-N,N-dimethylaniline]
56.1% | 6.61 | < 4.60 | 53.8% | 5.25 | 49.2% | 55.9% | 7.10 | < 4.60 | C[C@H]1CN(S(=O)(=O)c2ccc(N(C)C)cc2)CCCN(CC2CCCCC2)CCCN(S(=O)(=O)N2CCN(c3ccccc3OC(F)(F)F)CC2)C1 [A173, 4-{[(3S)-9-(cyclohexylmethyl)-3-methyl-5-({4-[2-(trifluoromethoxy)phenyl]piperazin-1-yl}sulfonyl)-1,5,9-triazacyclododecan-1-yl]sulfonyl}-N,N-dimethylaniline]
41.7% | 7.27 | < 4.60 | 44.4% | 6.25 | 36.9% | 28.4% | 7.80 | 5.73 | COc1c(N2CCN(S(=O)(=O)N3CCCN(CC4CCCCC4)CCCN(S(=O)(=O)c4ccc(N(C)C)cc4)C[C@H](C)C3)CC2)ccc(F)c1F [A174, 4-{[(3S)-9-(cyclohexylmethyl)-5-{[4-(3,4-difluoro-2-methoxyphenyl)piperazin-1-yl]sulfonyl}-3-methyl-1,5,9-triazacyclododecan-1-yl]sulfonyl}-N,N-dimethylaniline]
